ChEMBL document CHEMBL5728709, “Indazole derivatives useful as inhibitors of diacylglyceride O-acyltransferase 2” (2021)

Target: T1, Diacylglycerol O-acyltransferase 2 (Homo sapiens, UniProt Q96PD7)
T1 sequence (Q96PD7 whole entry): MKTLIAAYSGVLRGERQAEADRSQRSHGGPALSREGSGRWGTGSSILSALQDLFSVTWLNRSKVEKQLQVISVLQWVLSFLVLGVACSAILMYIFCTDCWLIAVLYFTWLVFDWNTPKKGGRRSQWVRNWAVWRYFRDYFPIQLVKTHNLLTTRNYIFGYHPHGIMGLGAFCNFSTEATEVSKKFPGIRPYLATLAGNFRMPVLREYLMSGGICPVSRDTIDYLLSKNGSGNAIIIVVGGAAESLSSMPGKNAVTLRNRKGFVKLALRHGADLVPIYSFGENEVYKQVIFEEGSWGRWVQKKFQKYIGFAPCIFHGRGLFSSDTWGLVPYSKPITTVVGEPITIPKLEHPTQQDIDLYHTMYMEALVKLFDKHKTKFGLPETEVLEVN
Assay: Enzymatic Activity Assay: DGAT2 activity was determined by measuring the amount of enzymatic product triolein (1,2,3-Tri(cis-9-octadecenoyl)glycerol) using the membrane prep mentioned above. The assay was carried out in deep well 384 plates in a final volume of 40 μL at room temperature. The assay mixture contained the following: assay buffer (100 mM Tris.Cl, pH 7.0, 20 mM MgCl2, 5% ethanol), 25 μM of diolein, 10 μM of oleoyl-CoA and 10 ng/μL of DGAT2 membrane.

IC50: 205 nM
SMILES: CC(C)(C)OC(=O)N1C[C@@H](O)[C@H](NC(=O)c2ccc3c(-c4ccccc4Cl)nn(-c4ccc(F)cc4)c3c2)C1
